“And” between values parts separate entries of the source, which are not always exact repeats. Identical values can stand only once.
Test system: TWEAK-Fn14 signalling pathway, BRV5 cells
Test: Cell-based screening of individual peptides, gene expression microarray in TWEAK-stimulated BRV5 cells
Set-up: species or system human
Details: 6 h; for regulation of probe genes by individual peptides: BRV5 + TWEAK 25 ng/mL, peptides 450 µM; for BIRC2 mRNA expression (normalized to NARS2) / HSP90B1 mRNA expression (normalized to NARS2) / IL6 mRNA expression (normalized to NARS2) / JUN mRNA expression (normalized to NARS2) / MAP4K4 mRNA expression (normalized to NARS2) / MAPK14 mRNA expression (normalized to NARS2) / NFKB2 mRNA expression (normalized to NARS2) / TNFRSF12A mRNA expression (normalized to NARS2) / TRAF2 mRNA expression (normalized to NARS2) / BIRC2 expression Z-Score / HSP90B1 expression Z-Score / IL6 expression Z-Score / JUN expression Z-Score / MAP4K4 expression Z-Score / MAPK14 expression Z-Score / NFKB2 expression Z-Score / TNFRSF12A expression Z-Score / TRAF2 expression Z-Score: individual peptides, BRV5 + TWEAK; for BIRC2 mRNA expression (normalized to NARS2) / HSP90B1 mRNA expression (normalized to NARS2) / IL6 mRNA expression (normalized to NARS2) / JUN mRNA expression (normalized to NARS2) / MAP4K4 mRNA expression (normalized to NARS2) / MAPK14 mRNA expression (normalized to NARS2) / NFKB2 mRNA expression (normalized to NARS2) / TNFRSF12A mRNA expression (normalized to NARS2) / TRAF2 mRNA expression (normalized to NARS2): 450 µM; for BIRC2 expression Z-Score / HSP90B1 expression Z-Score / IL6 expression Z-Score / JUN expression Z-Score / MAP4K4 expression Z-Score / MAPK14 expression Z-Score / NFKB2 expression Z-Score / TNFRSF12A expression Z-Score / TRAF2 expression Z-Score: normalized to NARS2
In short: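 Serum-starved BRV5 cells were treated with individual peptides at 450 µM, given once or re-dosed hourly, every two hours or every three hours, with or without TWEAK at 25 ng/mL. RNA was harvested after 6 h, and expression of TWEAK-Fn14 downstream genes plus two housekeeping genes was quantified by Fluidigm EvaGreen qPCR as Ct and delta Ct values.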

Substance	regulation of probe genes by individual peptides	BIRC2 mRNA expression (normalized to NARS2) (mean of replicate columns)	HSP90B1 mRNA expression (normalized to NARS2) (mean of replicate columns)	IL6 mRNA expression (normalized to NARS2) (mean of replicate columns)	JUN mRNA expression (normalized to NARS2) (mean of replicate columns)	MAP4K4 mRNA expression (normalized to NARS2) (mean of replicate columns)	MAPK14 mRNA expression (normalized to NARS2) (mean of replicate columns)	NFKB2 mRNA expression (normalized to NARS2) (mean of replicate columns)	TNFRSF12A mRNA expression (normalized to NARS2) (mean of replicate columns)	TRAF2 mRNA expression (normalized to NARS2) (mean of replicate columns)	BIRC2 mRNA expression (normalized to NARS2) (replicate column 1)	HSP90B1 mRNA expression (normalized to NARS2) (replicate column 1)	IL6 mRNA expression (normalized to NARS2) (replicate column 1)	JUN mRNA expression (normalized to NARS2) (replicate column 1)	MAP4K4 mRNA expression (normalized to NARS2) (replicate column 1)	MAPK14 mRNA expression (normalized to NARS2) (replicate column 1)	NFKB2 mRNA expression (normalized to NARS2) (replicate column 1)	TNFRSF12A mRNA expression (normalized to NARS2) (replicate column 1)	TRAF2 mRNA expression (normalized to NARS2) (replicate column 1)	BIRC2 mRNA expression (normalized to NARS2) (replicate column 2)	further results
1: GNGTDDNSGTSY [Peptide 1]	lack of effect against the probe genes	0.5966	1.937	0.002365	0.07082	0.1707	0.1634	0.03922	0.01975	0.011	0.538	1.874	0.002307	0.06535	0.1695	0.1671	0.04144	0.01871	0.009637	0.6552	HSP90B1 mRNA expression (normalized to NARS2) (replicate column 2): 2.001; IL6 mRNA expression (normalized to NARS2) (replicate column 2): 0.002424; JUN mRNA expression (normalized to NARS2) (replicate column 2): 0.07629; MAP4K4 mRNA expression (normalized to NARS2) (replicate column 2): 0.1719; MAPK14 mRNA expression (normalized to NARS2) (replicate column 2): 0.1597; NFKB2 mRNA expression (normalized to NARS2) (replicate column 2): 0.037; TNFRSF12A mRNA expression (normalized to NARS2) (replicate column 2): 0.0208; TRAF2 mRNA expression (normalized to NARS2) (replicate column 2): 0.01237; BIRC2 expression Z-Score (listed as P1): 0.2639; HSP90B1 expression Z-Score (listed as P1): -0.5389; IL6 expression Z-Score (listed as P1): 0.4124; JUN expression Z-Score (listed as P1): -0.3055; MAP4K4 expression Z-Score (listed as P1): -0.3569; MAPK14 expression Z-Score (listed as P1): -0.6461; NFKB2 expression Z-Score (listed as P1): -0.1191; TNFRSF12A expression Z-Score (listed as P1): -0.0875 and -0.08748; TRAF2 expression Z-Score (listed as P1): -0.4104
42: YNGHVKDD [Peptide 42]	lack of effect against the probe genes	0.5389	2.753	0.00216	0.08082	0.2296	0.2228	0.05504	0.02325	0.01684	0.5109	2.683	0.001723	0.07685	0.2119	0.2124	0.04902	0.02357	0.01769	0.5668	HSP90B1 mRNA expression (normalized to NARS2) (replicate column 2): 2.8231; IL6 mRNA expression (normalized to NARS2) (replicate column 2): 0.002596; JUN mRNA expression (normalized to NARS2) (replicate column 2): 0.08479; MAP4K4 mRNA expression (normalized to NARS2) (replicate column 2): 0.2473; MAPK14 mRNA expression (normalized to NARS2) (replicate column 2): 0.2332; NFKB2 mRNA expression (normalized to NARS2) (replicate column 2): 0.06106; TNFRSF12A mRNA expression (normalized to NARS2) (replicate column 2): 0.02293; TRAF2 mRNA expression (normalized to NARS2) (replicate column 2): 0.01599; BIRC2 expression Z-Score (listed as P42): -0.1362; HSP90B1 expression Z-Score (listed as P42): 0.9131; IL6 expression Z-Score (listed as P42): 0.2346; JUN expression Z-Score (listed as P42): -0.1905; MAP4K4 expression Z-Score (listed as P42): 1.1128 and 1.113; MAPK14 expression Z-Score (listed as P42): 0.3913; NFKB2 expression Z-Score (listed as P42): 1.3869 and 1.387; TNFRSF12A expression Z-Score (listed as P42): 0.3098; TRAF2 expression Z-Score (listed as P42): -0.1276
SWYDHMAGDSSY [Peptide 35]	lowest overall expression across all genes	0.4507	1.621	0.002118	0.05317	0.1168	0.1368	0.02465	0.01131	0.008162	0.4318	1.578	0.00212	0.0528	0.1079	0.1402	0.02663	0.01132	0.007774	0.4696	HSP90B1 mRNA expression (normalized to NARS2) (replicate column 2): 1.664; IL6 mRNA expression (normalized to NARS2) (replicate column 2): 0.002116; JUN mRNA expression (normalized to NARS2) (replicate column 2): 0.05355; MAP4K4 mRNA expression (normalized to NARS2) (replicate column 2): 0.1258; MAPK14 mRNA expression (normalized to NARS2) (replicate column 2): 0.1335; NFKB2 mRNA expression (normalized to NARS2) (replicate column 2): 0.02267; TNFRSF12A mRNA expression (normalized to NARS2) (replicate column 2): 0.01129; TRAF2 mRNA expression (normalized to NARS2) (replicate column 2): 0.008551; BIRC2 expression Z-Score (listed as P35): -0.7468; HSP90B1 expression Z-Score (listed as P35): -1.1014 and -1.101; IL6 expression Z-Score (listed as P35): 0.1984; JUN expression Z-Score (listed as P35): -0.5085; MAP4K4 expression Z-Score (listed as P35): -1.7018 and -1.702; MAPK14 expression Z-Score (listed as P35): -1.1107 and -1.111; NFKB2 expression Z-Score (listed as P35): -1.5063 and -1.506; TNFRSF12A expression Z-Score (listed as P35): -1.0476 and -1.048; TRAF2 expression Z-Score (listed as P35): -0.5479

From publication PMC7866087, “Evaluation of Computationally Designed Peptides against TWEAK, a Cytokine of the Tumour Necrosis Factor Ligand Family” (International Journal of Molecular Sciences, 2021)
